Measured values published in patent US20250325711A1, “COVALENT FLUORESCENT PROBES FOR CANNABINOID RECEPTOR 2” (Hoffmann-La Roche Inc., priority 2022, published 2025).

Target: hCB2R (Homo sapiens (Human), UniProt P34972)
Test: TR-FRET hCB2R Binding Assay
Conditions: SNAP-tagged human CB2R HEK293-TR cell membranes, TR-FRET (HTRF) detection, nonspecific binding with 1 μM SR144528; read-out: Kd hCB2R

CCN(CC)c1ccc2cc(C=Cc3ccc(S(=O)(=O)[O-])c[n+]3CCCCCC(=O)NCCOCCn3cc(CNC(=O)c4cccc(S(=O)(=O)n5cc(C(=O)NCCCCCCC(=O)NCC6=C[C@H](c7c(OC)cc(C(C)(C)CCCCCCN=[N+]=[N-])cc7OC)[C@@H]7C[C@H]6C7(C)C)ccc5=O)c4)nn3)c(=O)oc2c1 [Example 5, 1-(6-((2-(2-(4-((3-((5-((7-((((1S,4S,5S)-4-(4-(8-azido-2-methyloctan-2-yl)-2,6-dimethoxyphenyl)-6,6-dimethylbicyclo[3.1.1]hept-2-en-2-yl)methyl)amino)-7-oxoheptyl)carbamoyl)-2-oxopyridin-1 (2H)-yl)sulfonyl)benzamido)methyl)-1H-1,2,3-triazol-1-yl)ethoxy)ethyl)amino)-6-oxohexyl)-6-(2-(7-(diethylamino)-2-oxo-2H-chromen-3-yl)vinyl)pyridin-1-ium-3-sulfonate]
Kd: 0.059 µM

CCCCCCC(C)(C)c1cc(OC)c([C@H]2C=C(CNC(=O)CCCCCCNC(=O)c3ccc(S(=O)(=O)N(Cc4ccccn4)C(=O)CCCCCNc4ccc([N+](=O)[O-])c5nonc45)cc3)[C@H]3C[C@@H]2C3(C)C)c(OC)c1 [Example 9, N-(7-((((1S,4S,5S)-4-(2,6-dimethoxy-4-(2-methyloctan-2-yl)phenyl)-6,6-dimethylbicyclo[3.1.1]hept-2-en-2-yl)methyl)amino)-7-oxoheptyl)-4-(N-(6-((7-nitrobenzo[c][1,2,5]oxadiazol-4-yl)amino)hexanoyl)-N-(pyridin-2-ylmethyl)sulfamoyl)benzamide]
Kd: 0.0355 µM

COc1cc(C(C)(C)CCCCCCN=[N+]=[N-])cc(OC)c1[C@H]1C=C(CNC(=O)CCCCCCOc2c(F)c(F)c3c(c2F)C2(OC3=O)c3ccc(N4CCC4)cc3[Si](C)(C)c3cc(N4CCC4)ccc32)[C@H]2C[C@@H]1C2(C)C [Example 19, N-(((1S,4S,5S)-4-(4-(8-azido-2-methyloctan-2-yl)-2,6-dimethoxyphenyl)-6,6-dimethylbicyclo[3.1.1]hept-2-en-2-yl)methyl)-7-((3,7-di(azetidin-1-yl)-4′,5′,7′-trifluoro-5,5-dimethyl-3′-oxo-3′H,5H-spiro[dibenzo[b,e]siline-10,1′-isobenzofuran]-6′-yl)oxy)heptanamide]
Kd: 0.002 µM

COc1cc(C(C)(C)CCCCCCN=[N+]=[N-])cc(OC)c1[C@H]1C=C(CNC(=O)CCCCCCNC(=O)c2ccc(S(=O)(=O)N(Cc3ccccn3)C(=O)CCCCCNc3ccc([N+](=O)[O-])c4nonc34)cc2)[C@H]2C[C@@H]1C2(C)C [Example 8, N-(7-((((1S,4S,5S)-4-(4-(8-azido-2-methyloctan-2-yl)-2,6-dimethoxyphenyl)-6,6-dimethylbicyclo[3.1.1]hept-2-en-2-yl)methyl)amino)-7-oxoheptyl)-4-(N-(6-((7-nitrobenzo[c][1,2,5]oxadiazol-4-yl)amino)hexanoyl)-N-(pyridin-2-ylmethyl)sulfamoyl)benzamide]
Kd: 0.012 µM

COc1cc(C(C)(C)CCCCCCN=[N+]=[N-])cc(OC)c1[C@H]1C=C(CNC(=O)CCCCCCNC(=O)c2ccc(=O)n(S(=O)(=O)c3cccc(C(=O)NCc4cn(CCOCCOCCOCCOCCNc5ccc([N+](=O)[O-])c6nonc56)nn4)c3)c2)[C@H]2C[C@@H]1C2(C)C [Example 4, N-(7-((((1S,4S,5S)-4-(4-(8-azido-2-methyloctan-2-yl)-2,6-dimethoxyphenyl)-6,6-dimethylbicyclo[3.1.1]hept-2-en-2-yl)methyl)amino)-7-oxoheptyl)-1-((3-(((1-(14-((7-nitrobenzo[c][1,2,5]oxadiazol-4-yl)amino)-3,6,9,12-tetraoxatetradecyl)-1H-1,2,3-triazol-4-yl)methyl)carbamoyl)phenyl)sulfonyl)-6-oxo-1,6-dihydropyridine-3-carboxamide]
Kd: 0.0045 µM
